Assays:
[1] = In vivo pharmacokinetics after oral (intragastric) administration; conditions: male, Wistar, rat, rats, 40 mg/kg NMS, plasma
Description: 9 Male Wistar rats weighing 200 ± 20 g were randomly split into three groups (A group, NMS; B group, NMS/CMSN; C group, NMS/E-CMSN) and fasted for 12 h but given free access to water prior to the experiment. The three samples were suspended in 1.5 mL normal saline with the drug dose of 40 mg/kg and then orally administered (intragastric administration) to rats. Blood media (0.5 mL) of each animal was collected via the suborbital vein at different time intervals after administration and immediately centrifuged at 8000 rpm for 10 min to collect plasma. Subsequently, the obtained plasma was then stored at […] until analysis. 200 μL plasma sample was mixed with 80 μL of an internal standard solution (0.5 mg/mL) and 400 μL acetonitrile. The mixture was vortexed for 2 min. After centrifugation at 10,000 rpm for 5 min, the supernatant of each sample (20 μL) was subjected to HPLC analysis. The working conditions for HPLC analysis included: Mobile phase: methanol: pH 7.3 potassium dihydrogen phosphate buffer (65:35, v/v); Column temperature: 30 °C; Analysis wavelength: 370 nm; Flow rate: 1.0 mL/min.

[2] = test system: right hind ankle swelling after carrageenan injection into the paw; assay: Anti-inflammatory pharmacodynamics (carrageenan paw model, right hind ankle perimeter); format: in vivo, male Sprague–Dawley rats; conditions: rats, oral, 40 mg/kg NMS
Description: Right hind ankle perimeter of rats was ascertained to study the anti-inflammatory biological effect of […] or NMS/E-CMSN. Twelve male Sprague-Dawley rats (200 ± 20 g) were separated into four groups (Group A: Normal saline; Group B: NMS; Group C: NMS/CMSN; Group D: NMS/E-CMSN) and then fasted overnight before experiment. The rats in Group B, Group C and Group D were administered orally with corresponding nanoparticles containing 40 mg/kg NMS, while the rats in Group A were administered orally with normal saline. Afterwards, the perimeters of right hind ankles were ascertained. After half an hour, 0.1 mL 1% carrageenan solution was injected subcutaneously into the paw of each rat. […] Then, the following parameters were calculated. (2) Repressionrate(%)=([…]0)positive (3) Swelling rate(%)=Ct-C0/C0×100 where C0 denotes original perimeter of right hind ankle; Ct is the measured perimeter of right hind ankle.

[3] = Contact angle measurement (wetting property); format: physicochemical; conditions: pH 6.8 PBS; pH 6.8 PBS including trysin (Figure 6)
Description: To study the wettability differences after loading NMS into the two carriers, dynamic contact angle measurement was performed using JCY series (Shanghai, China). The working conditions covered: Automatic contact angle meter model, pressurized tablet of sample, as well as a drop of dissolution medium (2 μL). The measurement was started when dissolution medium dropped onto the tablet.

[4] = stated in the introduction, no reference given; cited from earlier work

AUC(0-t) ([1]; n = 3): 199 ± 66.6 µg·h/mL | Cmax ([1]; n = 3): 25.4 ± 9.68 µg/mL | Tmax ([1]; n = 3): 4 h | MRT last ([1]; n = 3, read-out: MRT(0–t)): 5.73 ± 0.354 h | half-life ([1]; n = 3, read-out: t1/2z (converted)): 5.08 ± 2.81 h | wetting property / contact angle [3]: poor water wetting property
SMILES: CS(=O)(=O)Nc1ccc([N+](=O)[O-])cc1Oc1ccccc1 [NMS, nimesulide]
time at which anti-inflammatory function started [2]: 0.5 h | anti-inflammatory effect according to swelling rate profiles ([2]; 0.5-4 h): exerted anti-inflammatory pharmacodynamics effect | LogP value [4]: 3.79
